Test results as given in patent publication US5652238A, “Esters of substituted-hydroxyacetyl piperazine phenyl oxazolidinones” (Pharmacia & Upjohn Company, priority 1996, dated 1997).
Converted amounts (≈) assume the structure as drawn. Structures can show the parent of a compound that is named as a salt.

Legend:
[1] = Aqueous solubility (pH 7, phosphate buffer); type: physicochemical
[2] = system: Staphylococcus aureus UC9213 or Streptococcus species; assay: Antimicrobial activity in vivo, Murine Assay (mice infected intraperitoneally with bacteria; ED50 from survival over six days); conditions: 144 h, female mice, treatment one hour and five hours after infection
Procedure: Antimicrobial activity was tested in vivo using the Murine Assay procedure. Groups of female mice (six mice of 18-20 grams each) were injected intraperitoneally with bacteria which were thawed just prior to use and suspended in brain heart infusion with 4% brewers yeast UC9213 (Staphylococcus aureus) or brain heart infusion (Streptococcus species). Antibiotic treatment at six dose levels per drug was administered one hour and five hours after infection by either oral intubation or subcutaneous ("subcut.") routes. Survival was observed daily for six days. ED50 values based on mortality ratios were calculated using probit analysis. The subject compounds were compared against a well-known antimicobial (Vancomycin) as a control.

Structure (SMILES) | solubility [1] [µg/mL] | ED50 ([2]; oral) [mg/kg] | ED50 ([2]; sc, subcut.) [mg/kg]
CC(=O)CCC(=O)OCC(=O)N1CCN(c2ccc(N3C[C@H](CNC(C)=O)OC3=O)cc2F)CC1 [Example 19, 4-Oxo-valeric acid, 2-(4-(4-(5-((acetylamino)methyl)-2-oxo-3-oxazolidinyl)-2-fluorophenyl)-1-piperazinyl)-2-oxoethyl monoester, (S)] | 2290 (≈ 4.65 mM) | – | –
CC(=O)NC[C@H]1CN(c2ccc(N3CCN(C(=O)COC(=O)c4ccc(N(C)C)cc4)CC3)c(F)c2)C(=O)O1 [Example 7, 4-dimethylaminobenzoic acid, 2-[4-[4-[5-[(acetylamino)methyl]-2-oxo-3-oxazolidinyl]-2-fluorophenyl]-1-piperazinyl]-2-oxoethyl ester, (S)-] | 10 (≈ 0.0185 mM) | > 20 | 1
CC(=O)NC[C@H]1CN(c2cc(F)c(N3CCN(C(=O)COC(=O)n4ccnc4)CC3)c(F)c2)C(=O)O1 [Example 5, 1H-imidazole-1-carboxylic acid, 2-[4-[4-[5-[(acetylamino)methyl]-2-oxo-3-oxazolidinyl]-2,6-difluorophenyl]-1-piperazinyl]-2-oxoethyl ester, (S)-] | – | 7 | 5
CC(=O)NC[C@H]1CN(c2ccc(N3CCN(C(=O)COC(=O)CCC(=O)O)CC3)c(F)c2)C(=O)O1 [Example 17] | 28000 (≈ 56.6 mM) | 5 | 2
CC(=O)CCC(=O)OCC(=O)N1CCN(c2c(F)cc(N3C[C@H](CNC(C)=O)OC3=O)cc2F)CC1 [Example 18, 4-Oxo-valeric acid, 2-(4-(4-(5-((acetylamino)methyl)-2-oxo-3-oxazolidinyl)-2,6-difluorophenyl)-1-piperazinyl)-2-oxoethyl ester, (S)] | 1200 (≈ 2.35 mM) | 14 | > 20
CC(=O)NC[C@H]1CN(c2ccc(N3CCN(C(=O)COC(=O)C(C)(CO)CO)CC3)c(F)c2)C(=O)O1 [Example 22, 2,2-bis(hydroxymethyl)propionic acid, 2-[4-[4-[5-[(acetylamino)methyl]-2-oxo-3-oxazolidinyl]-2-fluorophenyl]-1-piperazinyl]-2-oxoethyl ester, (S)-] | 13000 (≈ 25.5 mM) | > 18 | 4
CC(=O)NC[C@H]1CN(c2ccc(N3CCN(C(=O)COC(=O)CCN4CCOCC4)CC3)c(F)c2)C(=O)O1 [Example 1, 3-(4-Morpholinyl)propionic acid, 2-(4-(4-(5-((acetylamino)methyl)-2-oxo-3-oxazolidinyl)-2-fluorophenyl)-1-piperazinyl)-2-oxoethyl ester, (S)] | 36000 (≈ 67.2 mM) | 5 | 4
CC(=O)NC[C@H]1CN(c2ccc(N3CCN(C(=O)COC(=O)CCN(C)C)CC3)c(F)c2)C(=O)O1 [Example 11, 3-(Dimethylamino)propanoic acid, 2-[4-[4-[5-[(acetylamino)methyl]-2-oxo-3-oxazolidinyl]-2-fluorophenyl]-1-piperazinyl]-2-oxoethyl ester, (S)-] | – | 8 | 8
CC(=O)NC[C@H]1CN(c2ccc(N3CCN(C(=O)COC(=O)c4cccnc4)CC3)c(F)c2)C(=O)O1 [Example 2, Nicotinic acid, 2-[4-[4-[5-[(acetylamino)methyl]-2-oxo-3-oxazolidinyl]-2-fluorophenyl]-1-piperazinyl]-2-oxoethyl ester, (S)-] | 300 (≈ 0.601 mM) | 9 | 15
CC(=O)NC[C@H]1CN(c2ccc(N3CCN(C(=O)COC(=O)n4ccnc4)CC3)c(F)c2)C(=O)O1 [Example 4, 1H-imidazole-1-carboxylic acid, 2-[4-[4-[5-[(acetylamino)methyl]-2-oxo-3-oxazolidinyl]-2-fluorophenyl]-1-piperazinyl]-2-oxoethyl ester, (S)-] | 1400 (≈ 2.87 mM) | 2 | 2
CC(=O)NC[C@H]1CN(c2ccc(N3CCN(C(=O)COC(=O)CO)CC3)c(F)c2)C(=O)O1 [Example 23, Hydroxyacetic acid, 2-[4-[4-[5[(acetylamino)methyl]-2-oxo-3-oxazolidinyl]-2-fluorophenyl]-1-piperazinyl]-2-oxoethyl ester, (S)] | 4200 (≈ 9.28 mM) | 2 | 1
CC(=O)NC[C@H]1CN(c2cc(F)c(N3CCN(C(=O)COC(=O)c4ccc(N(C)C)cc4)CC3)c(F)c2)C(=O)O1 [Example 8, 4-dimethylaminobenzoic acid, 2-[4-[4-[5-[(acetylamino)methyl]-2-oxo-3-oxazolidinyl]-2,6-difluorophenyl]-1-piperazinyl]-2-oxoethyl ester, (S)-] | 10 (≈ 0.0179 mM) | 10 | 6
CC(=O)NC[C@H]1CN(c2cc(F)c(N3CCN(C(=O)COC(=O)CO)CC3)c(F)c2)C(=O)O1 [Example 24, Hydroxyacetic acid, 2-[4-[4-[5-[(acetylamino)methyl]-2-oxo-3-oxazolidinyl]-2,6-difluorophenyl]-1-piperazinyl]-2-oxoethyl ester,] | – | 1 | –
CC(=O)NC[C@H]1CN(c2cc(F)c(N3CCN(C(=O)COC(=O)CN(C)C)CC3)c(F)c2)C(=O)O1 [Example 10, Glycine, N,N-dimethyl-, 2-[4-[4-[5-[(acetylamino)methyl]-2-oxo-3-oxazolidinyl]-2,6-difluorophenyl]-1-piperazinyl]-2-oxoethyl ester, (S)-] | 4200 (≈ 8.44 mM) | 1 | 2
CC(=O)NC[C@H]1CN(c2cc(F)c(N3CCN(C(=O)COC(C)=O)CC3)c(F)c2)C(=O)O1 [Example 14, Acetic acid, 2-(4-(4-(5-((acetylamino)methyl)-2-oxo-3-oxazolidinyl)-2,6-difluorophenyl)-1-piperazinyl)-2-oxoethyl ester, (S)] | 1600 (≈ 3.52 mM) | 3 | –
CC(=O)NC[C@H]1CN(c2ccc(N3CCN(C(=O)COC(=O)c4ccc(NC(=O)CN)cc4)CC3)c(F)c2)C(=O)O1 [Example 29, 4-N-(glycinyl)aminobenzoic acid, 2-[4-[4-[5-[(acetylamino)methyl]-2-oxo-3-oxazolidinyl]-2-fluorophenyl]-1-piperazinyl]-2-oxoethyl ester, (S)-] | 9800 (≈ 17.2 mM) | 9 | –
CC(=O)NC[C@H]1CN(c2cc(F)c(N3CCN(C(=O)COC(=O)CCC(=O)O)CC3)c(F)c2)C(=O)O1 [Example 15, Succinic acid, 2-(4-(4-(5-((acetylamino)methyl)-2-oxo-3-oxazolidinyl)-2,6-difluorophenyl)-1-piperazinyl)-2-oxoethyl monoester, (S)] | 12300 (≈ 24 mM) | – | –
CC(=O)NC[C@H]1CN(c2cc(F)c(N3CCN(C(=O)COC(=O)c4cccnc4)CC3)c(F)c2)C(=O)O1 [Example 3, Nicotinic acid, 2-[4-[4-[5-[(acetylamino)methyl]-2-oxo-3-oxazolidinyl]-2,6-difluorophenyl]-1-piperazinyl]-2-oxoethyl ester, (S)-6] | 50 (≈ 0.0966 mM) | 16 | 8
CC(=O)NC[C@H]1CN(c2ccc(N3CCN(C(=O)COC(=O)c4ccc(N)cc4)CC3)c(F)c2)C(=O)O1 [Example 21, 4-aminobenzoic acid, 2-[4-[4-[5-[(acetylamino)methyl]-2-oxo-3-oxazolidinyl]-2-fluorophenyl]-1-piperazinyl]-2-oxoethyl ester, (S)-] | 30 (≈ 0.0584 mM) | 8 | 13
CC(=O)NC[C@H]1CN(c2ccc(N3CCN(C(=O)COP(=O)(O)O)CC3)c(F)c2)C(=O)O1 [Example 20, Phosphoric acid, 2-(4-(4-(5-((acetylamino)methyl)-2-oxo-3-oxazolidinyl)-2-fluorophenyl)-1-piperazinyl)-2-oxoethyl ester, (S)] | 25700 (≈ 54.2 mM) | 6 | 4
CC(=O)NC[C@H]1CN(c2cc(F)c(N3CCN(C(=O)COC(=O)CCN4CCOCC4)CC3)c(F)c2)C(=O)O1 [Example 26, 3-(N-morpholinyl)propionic acid, 2-(4-(4-(5-((acetylamino)methyl)-2-oxo-3-oxaxzolidinyl)-2,6-difluorophenyl)-1-piperazinyl)-2-oxoethyl ester, (S)] | 8200 (≈ 14.8 mM) | 6 | 3
CC(=O)NC[C@H]1CN(c2ccc(N3CCN(C(=O)COC(=O)CCCN(C)C)CC3)c(F)c2)C(=O)O1 [Example 12, 4-(Dimethylamino)butanoic acid, 2-[4-[4-[5-[(acetylamino)methyl]-2-oxo-3-oxazolidinyl]-2-fluorophenyl]-1-piperazinyl]-2-oxoethyl ester, (S)-] | 34600 (≈ 68.2 mM) | 12 | > 20
CC(=O)NC[C@H]1CN(c2cc(F)c(N3CCN(C(=O)COC(=O)CCC(=O)O)CC3)c(F)c2)C(=O)O1 [Example 16, Succinic acid, 2-(4-(4-(5-((acetylamino)methyl)-2-oxo-3-oxazolidinyl)-2,6-difluorophenyl)-1-piperazinyl)-2-oxoethyl monoester, sodium salt, (S)] | – | 4 | –
COCC(=O)OCC(=O)N1CCN(c2ccc(N3C[C@H](CNC(C)=O)OC3=O)cc2F)CC1 [Example 25, Methoxyacetic acid, 2-(4-(4-(5-((acetylamino)methyl)-2-oxo3-oxazolidinyl)-2-fluorophenyl)-1-piperazinyl)-2-oxoethyl ester, (S)] | 6400 (≈ 13.7 mM) | 8 | 15
CC(=O)NC[C@H]1CN(c2ccc(N3CCN(C(=O)COC(=O)c4ccc(NC(=O)CN(C)C)cc4)CC3)c(F)c2)C(=O)O1 [Example 28, 4-N-(N,N-dimethylglycinyl)aminobenzoic acid, 2-[4-[4-[5-[(acetylamino)methyl]-2-oxo-3-oxazolidinyl]-2-fluorophenyl]-1-piperazinyl]-2-oxoethyl ester, (S)-] | 90 (≈ 0.15 mM) | – | –
